Legend:
[1] = target: Aβ1-42 (Homo sapiens, UniProt P05067); assay: FRET assay of Aβ1-42 oligomer (ADDL) assembly; format: biochemical; details: for IC50: FRET assay of Example 1, formation of neurotoxic ADDLs
Text: Fluorescence (or Förster) Resonance Energy Transfer (FRET) is a distance-dependent, non-radiative transfer of energy in which the de-excitation of one fluorophore (donor) is coupled to excitation of another fluorophore (acceptor). FRET occurs if (1) the quantum of energy emitted by a donor fluorophore corresponds to an acceptor fluorophore's excitation energy, (2) the orientations of donor and acceptor transition dipoles are nearly parallel and (3) the donor fluorescent emission spectrum overlaps the acceptor absorption spectrum.
In this assay, Aβ1-42 oligomer formation is monitored by FRET using N-terminal conjugates of fluorescein-Aβ1-42 as both the donor and acceptor fluorophore (fluorescein-fluorescein Ro˜45 Å). […] Inhibition of Aβ1-42 assembly is observed as the absence or attenuation of fluorescein quenching.
FRET and FP assays are performed in 384-well Corning Non-Binding Surface, black, opaque microtiter plates, and the assay buffer consists of 50 mM MOPS-Tris (pH 8.0) with 100 mM MgCl2. The assay volume, containing 0.2 μM FITC-Aβ(1-42) and 0.8 μM Aβ(1-42), is 50 μl and the temperature is 37° C. ADDL assembly is monitored on a Tecan GENios Pro plate reader, exciting at a wavelength of 485 nm and detecting emission at a wavelength of 515 nm. Kinetic traces are collected by recording fluorescence intensity and polarization readings every five minutes over about three to about a six-hour time course. […] Positive control reactions contain all buffer components in the absence of added small molecule or antibody reagents. To test for ADDL assembly inhibition, the non-peptidic compound was incubated with the peptide mixture at six concentrations from about 30 μM decreasing to about 0.05 μM.
Test Compound A appears as compound 7 in Table 1.

[2] = cited from earlier work
[3] = cited from earlier work; remark: listed apart in the source
[4] = target: T1, Aβ1-42 ADDLs (Homo sapiens, UniProt P05067); assay: Alternating Lever Cyclic Ratio (ALCR) rat model; format: in vivo; details: for error rates versus baseline: given alone; for Approach Errors Mean / Perseveration Errors Mean: base line error rate equalized to 1.00
T1 construct: Synthetic Aβ1-42 powder was dissolved in 1,1,1,3,3,3 hexafluorisopropanol (HFIP); host or cells: chemically synthesised peptide
Description: Preparations of Aβ1-42 ADDLs and a potential therapeutic compounds under the Alternating Lever Cyclic Ratio (ALCR) rat model of AD were tested. This highly sensitive model has been able to detect cognitive deficits due to direct injection of cell-derived Aβ oligomers into rat brain. In this study, a direct injection of ADDLs made from synthetic Aβ1-42 and a putative therapeutic compound under the ALCR procedure were tested.
The ALCR test has proven to be much more sensitive than previously published methods for measuring drug effects on cognitive function. In this task, rats must learn a complex sequence of lever-pressing requirements in order to earn food reinforcement in a two-lever experimental chamber. Subjects must alternate between two levers by switching to the other lever after pressing the first lever enough to get food reward. The exact number of presses required for each food reward changes, first increasing from 2 responses per food pellet up to 56 presses per food pellet, then decreasing back to 2 responses per pellet. Intermediate values were based on the quadratic function, x^2−x. One cycle was an entire ascending and descending sequence of these lever press requirements (e.g., 2, 6, 12, 20, 30, 42, 56, 56, 42, 30, 20, 12, 6, and 2 presses per food reward). Six such full cycles were presented during each daily session.
Synthetic Aβ1-42 powder was dissolved in 1,1,1,3,3,3 hexafluorisopropanol (HFIP) to afford a solution of Aβ1-42 in HFIP of about 1 mM and allowed to incubate at ambient temperature for about 1 h. The resulting solution was chilled on ice for about 5-10 min, then aliquoted into eppendorf tubes to provide about 50 μl of solution per tube. The tubes were then placed in a chemical fume hood and allowed to stand overnight to allow the HFIP to evaporate under a slow stream of nitrogen. To removed final traces of HFIP, the tubes were subjected to two SpeedVac cycles of 15 min at room temperature and about 15 to 25 in Hg of vacuum. The resulting films of monomerized Aβ1-42 peptide were stored over desiccant at −80° C. until used.
A tube of monomerized Aβ1-42 peptide was warmed to room temperature and the Aβ1-42 peptide was dissolved in anhydrous DMSO to afford a peptide stock DMSO solution containing about 10 μM to about 100 μM Aβ1-42 peptide in DMSO.
2 μl of a 20 mM stock solution of test compound in anhydrous DMSO is added to 998 μl of neural basal media (phenol red free, Gibco 12348-017) to give a compound neural basal media solution containing 40 μM of test compound in neural basal media.
For the Aβ1-42 peptide only treatment, peptide stock DMSO solution is added to 37° C. neural basal to obtain the requisite Aβ1-42 peptide monomer concentration, provided that the maximum concentration of DMSO is 1% or less, and the tube is vortexed for 30 to 60 seconds, spun down briefly in a microfuge and incubated at 37° C. for 15 min prior to the start of injections.
For the Aβ1-42 peptide plus test compound treatment, peptide stock DMSO solution is added to 37° C. compound neural basal media solution to obtain the requisite Aβ1-42 peptide monomer concentration, provided that the maximum concentration of DMSO is 1% or less, and the tube is vortexed for 30 to 36 seconds, spun down briefly in a microfuge and incubated at 37° C. for 15 min prior to the start of injections.
For control injections, compound neural basal media solution is incubated at 37° C. for 15 min prior to the start of injections.
Rats: Rats were trained under ALCR until their error rates were stable. Once the rats were placed upon the final ALCR procedure, training sessions were conducted 7 days each week until the end of the study.
Surgery: All rats received a single 28 ga cannula, which was permanently affixed to the skull, and aimed at the lateral ventricle. Half the rats received cannula in the right ventricle and half received cannula in the left ventricle. Rats were allowed 5 days to recover from surgery before training resumed. […]

[5] = injectate alone, 20 μl via ventricular cannula, tested about 3 hours after injection
[6] = compound combined with Aβ1-42 ADDLs

T1 sequence (P05067 672-713 limits assumed): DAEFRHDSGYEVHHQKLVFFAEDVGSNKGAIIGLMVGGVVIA
Chain of Aβ1-42 (P05067 672-713 limits assumed): as above

With CCOC(=O)c1c(NC(=O)C(=O)N/N=C/c2ccccc2O)sc2c1CCC(C)C2 (centres unmarked) [Compound 7, 2-{[1-(2-Hydroxyphenyl)-meth-(E)-ylidene-hydrazinooxalyl]-amino}-6-methyl-4,5,6,7-tetrahydro-benzo[b]thiophene-3-carboxylic acid ethyl ester] the “inhibition of Aβ1-42 oligomer assembly” value ([1]; 1 mM Aβ1-42 total monomer, 100 mM MgCl2, compound 0.05 to 3 mM (so in the source), FIG. 1) was “dose dependent inhibition of Aβ1-42 oligomer assembly”.
In the case of NCCCS(=O)(=O)O [Alzhemed, 3-amino-1-propanesulfonic acid], the “blocking of Aβ1-42 monomer assembly into Aβ oligomers” value ([1]; standard FRET assay conditions of Example 1, FIG. 2) is listed as “inability of the compound Alzhemed to inhibit Aβ1-42 monomer assembly into Aβ oligomers”, the cognitive decline ([2]; 20 month open-label extension of Phase II trial, patients with mild AD) is listed as “slowed cognitive decline in some patients” and the efficacy ([2]; blinded phase of the Phase II study) is listed as “no efficacy was observed”.
In the case of Oc1c(I)cc(Cl)c2cccnc12 [Clioquinol], the “patients' cognitive ability” value ([3]; compared to untreated patients) is given as “stabilize the patients' cognitive ability” and the “Aβ1-42 levels in plasma” value ([3]; patients' plasma) is given as “lower Aβ1-42 levels”.
With “Aβ1-42 ADDLs: ADDLs made from synthetic Aβ1-42; soluble, oligomeric, globular, non-fibrillar, neurotoxic Aβ1-42 peptides [reference compound]” the “error rates versus baseline” value [4] was “significantly increased Perseveration Error rate”, the “Approach Errors Mean” value [4, 5] was 1.02 and the “Perseveration Errors Mean” value [4, 5] was 1.33.
For O=C(N/N=C/c1c(O)ccc2ccccc12)c1ccccc1O [Compound 24, (E)-2-hydroxy-N′-((2-hydroxynaphthalen-1-yl)methylene)benzohydrazide], the “effect on ADDL-induced increase in Perseveration Errors” value ([4]; combined with the requisite concentration of Aβ1-42 ADDLs) was “eliminated the increase in Perseveration Errors”, the “Approach Errors Mean” value [4, 6] was 1.00 and the “Perseveration Errors Mean” value [4, 6] was 0.92. For the same compound, the “error rates versus baseline” value [4] was “did not increase error rates”, the “Approach Errors Mean” value [4, 5] was 0.96 and the “Perseveration Errors Mean” value [4, 5] was 0.95.
Compound Cn1nccc1C(=O)C/C(=N/NC(=O)c1ccccc1O)C(F)(F)F [Compound 1, 2-Hydroxy-benzoic acid [3-oxo-3-(1-methyl-1H-pyrazol-5-yl)-1-trifluoromethyl-prop-(Z)-ylidene]-hydrazide] has an IC50 [1] of 17.7 µM.
Compound COc1ccc(NC(=O)C(=O)N2N=C(CCC(C)C)CC2(O)C(F)(F)F)cc1 (centres unmarked) [Compound 21, 2-(5-hydroxy-3-isopentyl-5-(trifluoromethyl)-4,5-dihydro-1H-pyrazol-1-yl)-N-(4-methoxyphenyl)-2-oxoacetamide] has an IC50 [1] of 6.4 µM.

Reference: patent publication US8962677B2, “Methods of restoring cognitive ability using non-peptidic compounds” (Acumen Pharmaceuticals, Inc., priority 2007, dated 2015)
